Laboratory results taken from patent US20160287589A1, “SUBSTITUTED-IMIDAZOPYRIDAZINES” (BAYER PHARMA AKTIENGESELLSCHAFT, priority 2013, published 2016).

Experiments:
MKNK1 [1] = target: T1, MKNK1 (Homo sapiens, UniProt Q9BUB5, T385D); test: MKNK1 kinase assay (MKNK1 TR-FRET assay); type: biochemical; settings: Table 1c; 10 μM ATP, 15 min preincubation
T1 construct: GST (N); purchased Carna Biosciences 02-145; host or cells: insect cells (baculovirus expression system)

MKNK1 [2] = target: T1, MKNK1; test: MKNK1 kinase high ATP assay (TR-FRET-based); type: biochemical; settings: Table 2c; 2 mM ATP, 15 min preincubation
Procedure, shortened: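 GST-tagged full-length human MKNK1 (aa 1-424, T344D) from insect cells, preincubated with compound 15 min at 22 °C. Reaction 30 min at 22 °C with 2 mM ATP and 0.06 μM biotinylated peptide in HEPES pH 7.5, Mg2+, DTT. Phosphopeptide detected by TR-FRET (665/622 ratio) with anti-pS6 (pSer236) antibody; normalised to no-inhibitor and no-enzyme controls.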

T1 sequence (Q9BUB5 1-424 isoform Q9BUB5-2 T344D): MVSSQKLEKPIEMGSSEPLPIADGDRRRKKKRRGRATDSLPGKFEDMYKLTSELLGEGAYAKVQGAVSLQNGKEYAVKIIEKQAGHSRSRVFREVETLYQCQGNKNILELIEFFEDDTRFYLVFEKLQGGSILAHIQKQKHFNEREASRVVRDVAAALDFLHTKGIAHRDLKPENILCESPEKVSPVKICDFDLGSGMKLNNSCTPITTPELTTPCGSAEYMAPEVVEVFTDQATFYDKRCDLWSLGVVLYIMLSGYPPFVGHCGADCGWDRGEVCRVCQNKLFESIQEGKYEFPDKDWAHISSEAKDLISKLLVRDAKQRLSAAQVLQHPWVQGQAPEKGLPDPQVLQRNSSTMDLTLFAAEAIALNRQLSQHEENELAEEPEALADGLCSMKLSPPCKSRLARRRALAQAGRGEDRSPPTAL

IC50 (MKNK1 [1]) [nM] | IC50 (MKNK1 [2]) [nM] | Structure (SMILES)
0.7 | 0.5 | CCN(CCOC)c1nccc2oc(-c3cnc4ccc(OC[C@@H]5CCC(=O)N5)nn34)cc12 [III-86, (S)-5-{[(3-{4-[Ethyl(2-methoxyethyl)amino]furo[3,2-c]pyridin-2-yl}imidazo[1,2-b]pyridazin-6-yl)oxy]methyl}pyrrolidin-2-one]
2.9 | 8 | O=C1CNC[C@H](COc2ccc3ncc(-c4cc5c(N6CCOCC6)nccc5o4)n3n2)N1 [III-89, (6R)-6-[({3-[4-(Morpholin-4-yl)furo[3,2-c]pyridin-2-yl]imidazo[1,2-b]pyridazin-6-yl}oxy)methyl]piperazin-2-one]
0.8 | 0.5 | CCN(CCOC)c1nccc2oc(-c3cnc4ccc(OC[C@H]5CNCC(=O)N5)nn34)cc12 [III-90, (6R)-6-{[(3-{4-[Ethyl(2-methoxyethyl)amino]furo[3,2-c]pyridin-2-yl}imidazo[1,2-b]pyridazin-6-yl)oxy]methyl}piperazin-2-one]
8.4 | 18.3 | COc1ccc2ncc(-c3cc4c(N5CCN(c6ccccc6)CC5)nccc4o3)n2n1 [III-91, 6-Methoxy-3-[4-(4-phenylpiperazin-1-yl)furo[3,2-c]pyridin-2-yl]imidazo[1,2-b]pyridazine]
3.2 | 7.8 | N[C@H]1C[C@H](Oc2ccc3ncc(-c4cc5c(N6CCOCC6)nccc5o4)n3n2)C1 [III-95, trans-3-({3-[4-(Morpholin-4-yl)furo[3,2-c]pyridin-2-yl]imidazo[1,2-b]pyridazin-6-yl}oxy)cyclobutanamine]
3.9 | 3.4 | CN1CCN(c2nccc3oc(-c4cnc5ccc(O[C@H]6C[C@@H](N)C6)nn45)cc23)CC1 [III-96, cis-3-({3-[4-(4-Methylpiperazin-1-yl)furo[3,2-c]pyridin-2-yl]imidazo[1,2-b]pyridazin-6-yl}oxy)cyclobutanamine]
5.6 | 21 | CN(CCCN1CCCC1)c1nccc2oc(-c3cnc4ccc(O[C@H]5C[C@H](N)C5)nn34)cc12 [III-97, 2-{6-[(trans-3-Aminocyclobutyl)oxy]imidazo[1,2-b]pyridazin-3-yl}-N-methyl-N-[3-(pyrrolidin-1-yl)propyl]furo[3,2-c]pyridin-4-amine]
1.6 | 3.3 | CN(C)[C@@H]1CCN(c2nccc3oc(-c4cnc5ccc(O[C@H]6C[C@H](N)C6)nn45)cc23)C1 [III-98, (3R)-1-(2-{6-[(trans-3-Aminocyclobutyl)oxy]imidazo[1,2-b]pyridazin-3-yl}furo[3,2-c]pyridin-4-yl)-N,N-dimethylpyrrolidin-3-amine]
24.4 | 45.6 | CC(C)(C)N1CCN(c2nccc3oc(-c4cnc5ccc(O[C@H]6C[C@H](N)C6)nn45)cc23)CC1 [III-99, trans-3-({3-[4-(4-tert-butylpiperazin-1-yl)furo[3,2-c]pyridin-2-yl]imidazo[1,2-b]pyridazin-6-yl}oxy)cyclobutanamine]
0.8 | 1.2 | CCN(CCOC)c1nccc2oc(-c3cnc4ccc(O[C@H]5C[C@H](N)C5)nn34)cc12 [III-101, 2-{6-[(trans-3-Aminocyclobutyl)oxy]imidazo[1,2-b]pyridazin-3-yl}-N-ethyl-N-(2-methoxyethyl)furo[3,2-c]pyridin-4-amine]
6.8 | 31.2 | N[C@H]1C[C@H](Oc2ccc3ncc(-c4cc5c(N6CCC[C@@H]6CO)nccc5o4)n3n2)C1 [III-102, [(2R)-1-(2-{6-[(trans-3-Aminocyclobutyl)oxy]imidazo[1,2-b]pyridazin-3-yl}furo[3,2-c]pyridin-4-yl)pyrrolidin-2-yl]methanol]
9.1 | 18.6 | N[C@H]1C[C@H](Oc2ccc3ncc(-c4cc5c(N6CCNCC6)nccc5o4)n3n2)C1 [III-103, trans-3-({3-[4-(Piperazin-1-yl)furo[3,2-c]pyridin-2-yl]imidazo[1,2-b]pyridazin-6-yl}oxy)cyclobutanamine]
18.7 | 61.5 | C[C@@H]1CN(c2nccc3oc(-c4cnc5ccc(O[C@H]6C[C@H](N)C6)nn45)cc23)C[C@H](C)O1 [III-104, trans-3-[(3-{4-[(2R,6S)-2,6-Dimethylmorpholin-4-yl]furo[3,2-c]pyridin-2-yl}imidazo[1,2-b]pyridazin-6-yl)oxy]cyclobutanamine]
2.1 | 7.3 | CN(CCCO)c1nccc2oc(-c3cnc4ccc(O[C@H]5C[C@H](N)C5)nn34)cc12 [III-105, 3-[(2-{6-[(trans-3-Aminocyclobutyl)oxy]imidazo[1,2-b]pyridazin-3-yl}furo-[3,2-c]pyridin-4-yl)(methyl)amino]propan-1-ol]
10.2 | 9.2 | N[C@H]1C[C@H](Oc2ccc3ncc(-c4cc5c(N6CCN(c7ccccc7)CC6)nccc5o4)n3n2)C1 [III-106, trans-3-({3-[4-(4-Phenylpiperazin-1-yl)furo[3,2-c]pyridin-2-yl]imidazo[1,2-b]pyridazin-6-yl}oxy)cyclobutanamine]
4.8 | 11.8 | C[C@@H]1COCCN1c1nccc2oc(-c3cnc4ccc(O[C@H]5C[C@H](N)C5)nn34)cc12 [III-107, trans-3-[(3-{4-[(3R)-3-Methylmorpholin-4-yl]furo[3,2-c]pyridin-2-yl}imidazo[1,2-b]pyridazin-6-yl)oxy]cyclobutanamine]
3.8 | 42.2 | CCN(CCOC)c1nccc2oc(-c3cnc4ccc(O[C@H]5Cc6ccccc6[C@@H]5N)nn34)cc12 [III-111, 2-(6-{[(1S,2S)-1-Amino-2,3-dihydro-1H-inden-2-yl]oxy}imidazo[1,2-b]pyridazin-3-yl)-N-ethyl-N-(2-methoxyethyl)furo[3,2-c]pyridin-4-amine]
15.6 | 88.1 | CCN(CCOC)c1nccc2oc(-c3cnc4ccc(O[C@H]5Cc6ccccc6[C@H]5N)nn34)cc12 [III-112, 2-(6-{[(1R,2S)-1-Amino-2,3-dihydro-1H-inden-2-yl]oxy}imidazo[1,2-b]pyridazin-3-yl)-N-ethyl-N-(2-methoxyethyl)furo[3,2-c]pyridin-4-amine]
0.5 | 0.3 | CCN(CCOC)c1nccc2oc(-c3cnc4ccc(OC[C@@H]5CNCC(=O)N5)nn34)cc12 [III-113, (6S)-6-{[(3-{4-[Ethyl(2-methoxyethyl)amino]furo[3,2-c]pyridin-2-yl}imidazo[1,2-b]pyridazin-6-yl)oxy]methyl}piperazin-2-one]
10.4 | 23.4 | CN(C)[C@H]1CCN(c2nccc3oc(-c4cnc5ccc(OCCCS(C)(=O)=O)nn45)cc23)C1 [III-114, (3S)-N,N-dimethyl-1-(2-{6-[3-(methylsulfonyl)propoxy]imidazo[1,2-b]pyridazin-3-yl}furo[3,2-c]pyridin-4-yl)pyrrolidin-3-amine]

Structure (SMILES) | IC50 (MKNK1 [1]) [nM] | IC50 (MKNK1 [2]) [nM]
CN1CCC(N(C)c2nccc3oc(-c4cnc5ccc(O[C@H]6C[C@H](N)C6)nn45)cc23)CC1 [III-100, 2-{6-[(trans-3-Aminocyclobutyl)oxy]imidazo[1,2-b]pyridazin-3-yl}-N-methyl-N-(1-methylpiperidin-4-yl)furo[3,2-c]pyridin-4-amine] | 5.7 | 45.8
CCN(CCOC(C)(C)C)c1nccc2oc(-c3cnc4ccc(O[C@H]5C[C@H](N)C5)nn34)cc12 [III-108, 2-{6-[(trans-3-Aminocyclobutyl)oxy]imidazo[1,2-b]pyridazin-3-yl}-N-(2-tert-butoxyethyl)-N-ethylfuro[3,2-c]pyridin-4-amine] | 1.9 | 0.5
